Active and inactive are the calls of the source.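 Rule for the calls: active = compounds giving half or more protection of infected cells from virus-caused growth loss, again on retest; inactive = the rest.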
System: CEM cells HIV-1 protection, formazan growth assay
Assay: NCI AIDS Antiviral Assay
Conditions: for IC50: measured here: growth of uninfected CEM cells
Outline: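 Steps: treat uninfected and HIV-1-infected human CEM cells at five drug levels; quantify growth by soluble formazan; retest any compound reaching 50% protection; classify actives from the retest.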

SMILES	outcome	EC50 [µM]	IC50 [µM]
Cn1c2c(c3ccccc31)C1CCCCCCC1C1C(=O)OC(=O)C21 (stereo not drawn)	inactive		
Cn1c(CC(O)(C(F)(F)F)C(F)(F)F)c(C(O)(C(F)(F)F)C(F)(F)F)c2ccccc21		> 200	3.39
Cc1ccc(N=NC(C(=O)c2ccccc2)C(=O)c2ccccc2)cc1		> 39.8	20
CC(CCC=C(c1cc(Cl)c(O)c(C(=O)O)c1)c1cc(Cl)c(O)c(C(=O)O)c1)C1CCC2[C@@H]3CC[C@@H]4CC(F)(F)CC[C@]4(C)C3CC[C@]12C (stereo partly drawn)		> 170	38
CC(NC(=O)OC(C)(C)C)C(=O)NC(Cc1ccccc1)C(=O)NCC(=O)ON=C1CCCC1 (stereo not drawn)		> 200	25.7
CC(=O)Oc1ccc2c(c1)Oc1cc(OC(C)=O)ccc1C21OC(=O)c2ccccc21		> 200	
Cc1cc(Cl)ccc1C1OC(=O)c2c1ccc1ccccc21 (stereo not drawn)		> 23.4	> 23.4
CCOC(=O)c1ccc(CS(=O)(=O)c2ccc(Cl)cc2)cc1		> 55	> 55
O=C(O)C[n+]1ccccc1		148	> 200
Nc1nc(-c2ccc(Cl)cc2)nc2sc3c(c12)CCCCC3		> 30.2	> 30.2
CCCCCCCCCCCCCCCC(=O)Nc1ccn(C2CCC(COP(=O)(O)OCC3OC(n4cc(C)c(=O)[nH]c4=O)CC3F)O2)c(=O)n1 (stereo not drawn)		0.0132	0.2
CC(C)(C)OC(=O)NC(Cc1ccc(OCc2ccccc2)cn1)C(N)=O (stereo not drawn)		> 200	> 100
CCCCN(CCCC)CCCNc1c2c(nc3cc(Cl)ccc13)CCCC2		> 200	38.9
NC(CSS(=O)(=O)O)=NCC1CC2CCC1C2 (stereo not drawn)		> 200	91.2
CCCCCCCCCCNc1nc(F)nc(Nc2cc3ccc(OC)cc3oc2=O)n1		> 39.8	7.08
CN(C(=O)c1cccs1)C(=S)N1CCN(c2ccccn2)CC1		> 195	110
CCN(CC)CCNc1cccc2oc3ccc(OS(=O)(=O)c4ccc(C)cc4)cc3c(=O)c12		> 15.1	6.31
CCOP(=O)(Nc1ccc(-c2ccccc2)cc1)OCC		> 200	52.5

SMILES	outcome	EC50 [µM]	IC50 [µM]
COc1ccc(/C=C2\C(=O)Nc3ccccc32)cc1OC		> 1.95	> 1.95
CC(NC(=O)C(N)CC(=O)O)NC(=O)N1CCOCC1 (stereo not drawn)		> 200	> 200
CCOC(=O)c1cc2c3c(c1)C(=O)CCN3CCC2=O	inactive		
CC(C)(N=NC(C)(C)C(=O)NCCO)C(=O)NCCO		> 200	> 200
Clc1ccccc1CN1COc2c(cc(Cl)c3cccnc23)C1		> 87.1	4.57
Oc1ccccc1/C=N\NC(=S)Nc1ccc2cn[nH]c2c1		> 200	126
Cc1ccc(C)n1C1CCOC1=O (stereo not drawn)	inactive		
Brc1c2c(c(Br)c3nsnc13)N=S=N2	inactive		
CC(=O)OCC1OC(n2c(=O)n(-c3ccccc3)c(=O)c3ccccc32)C(OC(C)=O)C(OC(C)=O)C1OC(C)=O (stereo not drawn)		> 24	> 24
Cc1nc(-c2nc(C)c(C(=O)NN(C)C)s2)sc1C(=O)NN(C)C		> 70.8	> 70.8
CC(C)CCC[C@@H](C)[C@H]1CC[C@H]2[C@@H]3CC[C@H]4C[C@@H](CCC=C(c5cc(Cl)c(OCc6ccc(C(=O)O)cc6)c(C(=O)O)c5)c5cc(Cl)c(OCc6ccc(C(=O)O)cc6)c(C(=O)O)c5)CC[C@]4(C)[C@H]3CC[C@]12C		2.51	50.1
Cc1c(C)c2cc3c(=O)c(CCl)coc3c(C)c2oc1=O		> 17	> 17
Nn1c(=O)n(Cc2ccccc2)n(-c2ccccc2)c1=O	inactive		
CCN(CC)CCOc1ccc(/C(C#N)=C/c2ccc3ccccc3c2)cc1		> 100	0.933
Cc1nc(-c2ccccc2)cc2c1c(=O)oc1ccccc12		> 5.01	> 5.01
Cc1cccc(C2(Br)C(=O)c3ccccc3C2=O)c1		> 200	195
O=C1C(=O)C2(CC1S(=O)(=O)c1ccccc1)c1ccccc1-c1ccccc12 (stereo not drawn)	inactive		

Reference: PubChem BioAssay AID179 (DTP/NCI, 2004)
